Reference: patent publication US10815241B2, “Optically active azabicyclo ring derivative” (priority 2018, dated 2020)
“Also recorded” adds a separate entry of the source. Read-outs that look alike come from different tables or passages of the source.

Columns and labels:
[1] = target: hERG (human Ether-a-go-go Related Gene) (Homo sapiens (Human), UniProt Q12809); experiment: Test 4: hERG inhibition (QPatch HT, CHO cells stably expressing hERG); conditions: for hERG/RS4; 11: hERG IC50 divided by RS4;11 proliferation IC50
[2] = target: Menin-MLL binding (His-Menin1-615 / MLL1-172-FLAG) (Homo sapiens (Human), UniProt O00255); experiment: Test 1: inhibition of the Menin-MLL binding (HTRF); conditions: for IC50: Menin-MLL binding inhibition; for Menin-MLL binding inhibition activity: statement in words on the table of Test 1
Experimental: After the incubation, the signal was detected with RUBYstar (BMG LABTECH).

RS4; 11 cells = experiment: Test 2: inhibition of cell proliferation, RS4;11; type: cell-based; conditions: for IC50: RS4;11 cells, 7 days, PrestoBlue cell viability; for cell proliferation inhibition activity: statement in words, RS4;11 and MOLM-13 cells
Experimental: (§1) RS4; 11 cells were obtained from American Type Culture Collection (ATCC). […] MOLM-13 cells were separately obtained from DSMZ (Deutsche Sammlung von Mikroorganismen und Zellkulturen GmbH).
(§2) The cells were plated to a 96-well plate in 2000 cells/well, each test compound was added thereto to adjust the final concentration of DMSO to 0.1% of DMSO, and the cells were cultured for 7 days. After the cultivation, the cell viability was calculated with PrestoBlue™ Cell Viability Reagent (Invitrogen, A13261).

MOLM-13 cells = experiment: Test 2: inhibition of cell proliferation, MOLM-13; type: cell-based; conditions: 7 days, PrestoBlue cell viability
Experimental: as §1, §2

MEIS1 = experiment: Test 3: inhibition of mRNA transcription, MEIS1 in MV4;11 cells; type: cell-based; conditions: for mRNA at 1 μM (% control) MEIS1: MV4;11 cells, 20 to 24 hours, relative to GAPDH; for mRNA transcription inhibition activity: statement in words, MEIS1 and HOXA9, MV4;11 cells
From the text: (§3) MV4; 11 cells were obtained from American Type Culture Collection (ATCC). […] The expression level of each obtained gene (MEIS1 and HOXA9) was fitted with the expression level of mRNA of GAPDH.

HOXA9 = experiment: Test 3: inhibition of mRNA transcription, HOXA9 in MV4;11 cells; type: cell-based; conditions: 20 to 24 hours, relative to GAPDH
From the text: as §3

[3] = read-out: hERG inhibition IC50, hERG current, CHO cells

Sequence of Menin-MLL binding (His-Menin1-615 / MLL1-172-FLAG) (O00255 other isoform, or with tags, fused parts or gaps): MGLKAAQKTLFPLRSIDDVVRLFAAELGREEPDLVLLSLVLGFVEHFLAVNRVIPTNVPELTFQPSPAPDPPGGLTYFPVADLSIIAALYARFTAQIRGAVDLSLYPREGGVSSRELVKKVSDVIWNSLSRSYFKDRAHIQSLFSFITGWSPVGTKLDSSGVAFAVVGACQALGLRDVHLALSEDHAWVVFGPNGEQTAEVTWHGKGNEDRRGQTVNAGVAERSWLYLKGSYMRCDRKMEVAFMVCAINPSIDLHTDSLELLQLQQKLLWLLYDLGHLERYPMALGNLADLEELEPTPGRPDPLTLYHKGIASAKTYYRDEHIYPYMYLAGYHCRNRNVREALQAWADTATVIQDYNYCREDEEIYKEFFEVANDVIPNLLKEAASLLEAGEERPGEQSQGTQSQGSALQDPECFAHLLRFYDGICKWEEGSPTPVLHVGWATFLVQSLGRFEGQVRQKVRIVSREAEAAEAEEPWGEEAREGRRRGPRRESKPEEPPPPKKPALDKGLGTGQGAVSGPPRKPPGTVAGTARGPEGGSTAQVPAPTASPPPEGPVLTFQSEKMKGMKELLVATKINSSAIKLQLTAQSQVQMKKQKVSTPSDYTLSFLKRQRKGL
Sequence of hERG (human Ether-a-go-go Related Gene) (Q12809 whole entry): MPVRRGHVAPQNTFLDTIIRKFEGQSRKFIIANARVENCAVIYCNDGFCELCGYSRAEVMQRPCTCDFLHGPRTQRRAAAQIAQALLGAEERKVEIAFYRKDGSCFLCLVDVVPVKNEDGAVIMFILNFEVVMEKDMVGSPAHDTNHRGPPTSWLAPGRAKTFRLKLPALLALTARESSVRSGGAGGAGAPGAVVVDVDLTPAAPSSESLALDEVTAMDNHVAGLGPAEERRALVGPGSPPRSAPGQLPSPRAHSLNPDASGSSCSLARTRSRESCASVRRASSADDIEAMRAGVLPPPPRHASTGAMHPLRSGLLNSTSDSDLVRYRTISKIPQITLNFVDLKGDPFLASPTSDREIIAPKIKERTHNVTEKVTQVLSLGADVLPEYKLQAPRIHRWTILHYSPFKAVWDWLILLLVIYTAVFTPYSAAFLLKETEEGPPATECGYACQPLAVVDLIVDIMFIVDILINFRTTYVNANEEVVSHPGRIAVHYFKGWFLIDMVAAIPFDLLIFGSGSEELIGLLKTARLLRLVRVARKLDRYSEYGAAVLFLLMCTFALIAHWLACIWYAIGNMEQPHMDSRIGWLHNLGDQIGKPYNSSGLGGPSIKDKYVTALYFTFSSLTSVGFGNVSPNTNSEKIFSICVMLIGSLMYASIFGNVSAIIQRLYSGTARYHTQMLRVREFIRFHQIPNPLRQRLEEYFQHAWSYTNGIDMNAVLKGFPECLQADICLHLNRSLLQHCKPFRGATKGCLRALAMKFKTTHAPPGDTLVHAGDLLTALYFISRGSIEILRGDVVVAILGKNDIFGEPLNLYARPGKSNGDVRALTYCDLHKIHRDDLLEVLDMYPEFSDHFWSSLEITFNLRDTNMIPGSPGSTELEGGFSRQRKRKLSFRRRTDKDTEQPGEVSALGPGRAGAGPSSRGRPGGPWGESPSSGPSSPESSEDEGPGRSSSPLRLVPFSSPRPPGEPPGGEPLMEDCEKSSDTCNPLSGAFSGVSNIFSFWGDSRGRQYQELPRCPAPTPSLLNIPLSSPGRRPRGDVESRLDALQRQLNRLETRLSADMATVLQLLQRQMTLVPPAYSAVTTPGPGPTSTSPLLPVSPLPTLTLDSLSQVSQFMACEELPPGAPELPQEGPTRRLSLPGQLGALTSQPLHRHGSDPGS

| IC50 (RS4; 11 cells; Homo sapiens) [nM] | IC50 (MOLM-13 cells; Homo sapiens) [nM] | Compound | IC50 [1] [nM] | hERG/RS4; 11 [1] | IC50 [2] [nM] | Menin-MLL binding inhibition activity [2] | cell proliferation inhibition activity (RS4; 11 cells) | mRNA at 1 μM (% control) MEIS1 (MEIS1) [% control] | mRNA transcription inhibition activity (MEIS1) | mRNA at 1 μM (% control) HOXA9 (HOXA9) [% control] | gap between RS4; 11 proliferation IC50 and hERG current IC50 [1] | IC50 [1, 3] [nM] | IC50 (RS4; 11 cells) [nM] | IC50 (MOLM-13 cells) [nM] |
| --- | --- | --- | --- | --- | --- | --- | --- | --- | --- | --- | --- | --- | --- | --- |
|  |  | CC(C)N(C(=O)c1cc(F)ccc1Oc1cncnc1N1CC2(CN(C(=O)[C@H]3N[C@@H]4CC[C@H]3C4)C2)C1)C(C)C [Example 15, 2-[(4-{6-[(1R,3S,4S)-2-azabicyclo[2.2.1]heptane-3-carbonyl]-2,6-diazaspiro[3.3]heptan-2-yl}pyrimidin-5-yl)oxy]-5-fluoro-N,N-di(propan-2-yl)benzamide] | > 100000 | >6250 |  |  |  |  |  |  |  |  |  |  |
| 870 | 810 | CC(C)N(C(=O)c1cc(F)ccc1Oc1cncnc1N1CCC2(CCN(C(=O)[C@H]3N[C@H]4CC[C@@H]3CC4)C2)C1)C(C)C (stereo partly drawn) [Example 2, 2-[(4-{7-[(1R,3S,4R)-2-Azabicyclo[2.2.2]octane-3-carbonyl]-2,7-diazaspiro[4.4]nonan-2-yl}pyrimidin-5-yl)oxy]-5-fluoro-N,N-di(propan-2-yl)benzamide] | 11800 | 13.6 |  |  |  |  |  |  |  |  |  |  |
| 20 | 30 | C=C1C[C@@H]2CC[C@H]1[C@@H](C(=O)N1CCC3(CC1)CN(c1ncncc1Oc1ccc(F)cc1C(=O)N(C(C)C)C(C)C)C3)N2 [Example 6, 5-Fluoro-2-[(4-{7-[(1S,3S,4R)-5-methylidene-2-azabicyclo[2.2.2]octane-3-carbonyl]-2,7-diazaspiro[3.5]nonan-2-yl}pyrimidin-5-yl)oxy]-N,N-di(propan-2-yl)benzamide] |  |  |  |  |  | 15.1 | showed the mRNA transcription inhibition activity | 39.3 |  |  |  |  |
| < 10 | < 10 | CC(C)N(C(=O)c1cc(F)ccc1Oc1cncnc1N1CC2(CCN(C(=O)[C@H]3N[C@H]4CC[C@@H]3[C@H](F)[C@@H]4CC3CC3)CC2)C1)C(C)C [Example 19, 2-[(4-{7-[(1S,3S,4S,5R,6R)-6-(cyclopropylmethyl)-5-fluoro-2-azabicyclo[2.2.2]octane-3-carbonyl]-2,7-diazaspiro[3.5]nonan-2-yl}pyrimidin-5-yl)oxy]-5-fluoro-N,N-di(propan-2-yl)benzamide] | 6900 | >690 |  |  |  |  |  |  | more than 100 fold |  |  |  |
|  | < 30 | [2H]C([2H])=C1C[C@@H]2CC[C@H]1[C@@H](C(=O)N1CCC3(CC1)CN(c1ncncc1Oc1ccc(F)cc1C(=O)N(C(C)C)C(C)C)C3)N2 [Example 20, 5-Fluoro-2-[(4-{7-[(1S,3S,4R)-5-(^2H2)methylidene-2-azabicyclo[2.2.2]octane-3-carbonyl]-2,7-diazaspiro[3.5]nonan-2-yl}pyrimidin-5-yl)oxy]-N,N-di(propan-2-yl)benzamide] |  |  |  |  |  |  |  |  |  |  |  |  |
| 80 | 80 | C=C1C[C@H]2CC[C@@H]1N[C@@H]2C(=O)N1CC2(C1)CN(c1ncncc1Oc1ccc(F)cc1C(=O)N(C(C)C)C(C)C)C2 [Example 9, 5-fluoro-2-[(4-{6-[(1S,3S,4R)-6-methylidene-2-azabicyclo[2.2.2]octane-3-carbonyl]-2,6-diazaspiro[3.3]heptan-2-yl}pyrimidin-5-yl)oxy]-N,N-di(propan-2-yl)benzamide] | > 10000 | >125 |  |  |  | 17.0 |  | 41.2 | more than 100 fold |  |  |  |
|  |  | CC(C)N(C(=O)c1cc(F)ccc1Oc1cncnc1N1CC2(CN(C(=O)[C@H]3NC4CCC3CC4)C2)C1)C(C)C [Example 11, 2-[(4-{6-[(1R,3S,4R)-2-azabicyclo[2.2.2]octane-3-carbonyl]-2,6-diazaspiro[3.3]heptan-2-yl}pyrimidin-5-yl)oxy]-5-fluoro-N,N-di(propan-2-yl)benzamide] |  | >500 |  |  |  | 13.1 | showed the mRNA transcription inhibition activity | 36.5 |  | > 10000 |  |  |
|  | 40 | C=C1C[C@@H]2C[C@H]1[C@@H](C(=O)N1CCC3(CC1)CN(c1ncncc1Oc1ccc(F)cc1C(=O)N(C(C)C)C(C)C)C3)N2 [Example 18, 5-fluoro-2-[(4-{7-[(1S,3S,4R)-5-methylidene-2-azabicyclo[2.2.1]heptane-3-carbonyl]-2,7-diazaspiro[3.5]nonan-2-yl}pyrimidin-5-yl)oxy]-N,N-di(propan-2-yl)benzamide] | 46100 | >2095 |  |  |  |  |  |  |  |  |  |  |
|  |  | CC(C)N(C(=O)c1cc(F)ccc1Oc1cncnc1N1CC2(CCN(C(=O)[C@H]3N[C@H]4CC[C@@H]3[C@@H](F)[C@H]4CC3CC3)CC2)C1)C(C)C [Example 14, 2-[(4-{7-[(1S,3S,4S,5S,6S)-6-(cyclropylmethyl)-5-fluoro-2-azabicyclo[2.2.2]octane-3-carbonyl]-2,7-diazaspiro[3.5]nonan-2-yl}pyrimidin-5-yl)oxy]-5-fluoro-N,N-di(propan-2-yl)benzamide] |  |  |  |  | potent |  |  |  | more than 100 fold | 11700 | 20 | 40 |
|  |  | C=C1C[C@@H]2CC[C@H]1[C@@H](C(=O)N1CC3(C1)CN(c1ncncc1Oc1ccc(F)cc1C(=O)N(C(C)C)C(C)C)C3)N2 [Example 7, 5-fluoro-2-[(4-{6-[(1S,3S,4R)-5-methylidene-2-azabicyclo[2.2.2]octane-3-carbonyl]-2,6-diazaspiro[3.3]heptan-2-yl}pyrimidin-5-yl)oxy]-N,N-di(propan-2-yl)benzamide] |  |  |  |  |  |  | showed the mRNA transcription inhibition activity |  |  |  |  |  |
|  | 40 | CC(C)N(C(=O)c1cc(F)ccc1Oc1cncnc1N1CC2(CCN(C(=O)[C@H]3N[C@@H]4CC[C@H]3C4)CC2)C1)C(C)C [Example 16, 2-[(4-{7-[(1R,3S,4S)-2-azabicyclo[2.2.1]heptane-3-carbonyl]-2,7-diazaspiro[3.5]nonan-2-yl}pyrimidin-5-yl)oxy]-5-fluoro-N,N-di(propan-2-yl)benzamide] | > 100000 | >3571 |  |  |  |  |  |  |  |  |  |  |
| 250 | 250 | CC(C)N(C(=O)c1cc(F)ccc1Oc1cncnc1N1CC2(CCN(C(=O)[C@H]3N[C@H]4CC[C@@H]3C(=O)C4)CC2)C1)C(C)C [Example 12, 5-fluoro-2-[(4-{7-[(1S,3S,4S)-5-oxo-2-azabicyclo[2.2.2]octane-3-carbonyl]-2,7-diazaspiro[3.5]nonan-2-yl}pyrimidin-5-yl)oxy]-N,N-di(propan-2-yl)benzamide] | > 100000 | >400 |  |  |  |  |  |  | more than 100 fold |  |  |  |
| 90 | 110 | C=C1C[C@H]2CC[C@@H]1N[C@@H]2C(=O)N1CCC2(CC1)CN(c1ncncc1Oc1ccc(F)cc1C(=O)N(C(C)C)C(C)C)C2 [Example 8, 5-fluoro-2-[(4-{7-[(1S,3S,4R)-6-methylidene-2-azabicyclo[2.2.2]octane-3-carbonyl]-2,7-diazaspiro[3.5]nonan-2-yl}pyrimidin-5-yl)oxy]-N,N-di(propan-2-yl)benzamide] | 12300 | 137 |  |  |  | 17.1 |  | 40.1 | more than 100 fold |  |  |  |

| Compound | IC50 (RS4; 11 cells; Homo sapiens) [nM] | IC50 (MOLM-13 cells; Homo sapiens) [nM] | IC50 [1] [nM] | hERG/RS4; 11 [1] | IC50 [2] [nM] | Menin-MLL binding inhibition activity [2] | cell proliferation inhibition activity (RS4; 11 cells) | mRNA at 1 μM (% control) MEIS1 (MEIS1) [% control] | mRNA transcription inhibition activity (MEIS1) | mRNA at 1 μM (% control) HOXA9 (HOXA9) [% control] | gap between RS4; 11 proliferation IC50 and hERG current IC50 [1] | IC50 [1, 3] [nM] | IC50 (RS4; 11 cells) [nM] | IC50 (MOLM-13 cells) [nM] |
| --- | --- | --- | --- | --- | --- | --- | --- | --- | --- | --- | --- | --- | --- | --- |
| CC(C)N(C(=O)c1cc(F)ccc1Oc1cncnc1N1CC2(CCN(C(=O)[C@H]3N[C@H]4CC[C@@H]3C[C@H]4CC3CC3)CC2)C1)C(C)C [Example 4, 2-[(4-{7-[(1S,3S,4R,6R)-6-(cyclopropylmethyl)-2-azabicyclo[2.2.2]octane-3-carbonyl]-2,7-diazaspiro[3.5]nonan-2-yl}pyrimidin-5-yl)oxy]-5-fluoro-N,N-di(propan-2-yl)benzamide] | 40 | 70 | 5800 | 145 | 7.1 | potent | potent | 18.0 | showed the mRNA transcription inhibition activity | 43.7 | more than 100 fold |  |  |  |
| CC(C)N(C(=O)c1cc(F)ccc1Oc1cncnc1N1CC2(CN(C(=O)[C@H]3N[C@H]4CC[C@@H]3C[C@H]4CC3CC3)C2)C1)C(C)C [Example 5, 2-[(4-{6-[(1S,3S,4R,6R)-6-(cyclopropylmethyl)-2-azabicyclo[2.2.2]octane-3-carbonyl]-2,6-diazaspiro[3.3]heptan-2-yl}pyrimidin-5-yl)oxy]-5-fluoro-N,N-di(propan-2-yl)benzamide] | 20 | 30 | 7900 | 395 | 4.1 | potent | potent; also recorded: excellent | 15.5 | showed the mRNA transcription inhibition activity | 42.6 | more than 100 fold |  |  |  |
